Source: patent US5126258A (priority 1988, dated 1992)
“Also recorded” adds a separate entry of the source. Read-outs that look alike come from different tables or passages of the source. Blank lines part the entries; values can stand above or below the compound they belong to. *1 amine or outer side, *2 acyl side, *3 side chain or, on linkers, in order; H or OH if unused. Where a SMILES comes first, the peptide text is derived from it. The star is where a group is joined. Glutaryl = O=C(CCCC(=O)[*:2])[*:1]; pNA = O=[N+]([O-])c1ccc(N*)cc1; Cbz = O=C(OCc1ccccc1)*

Tests used:
[1] = test system: monoclonal receptor NPN 43C9; assay: Amide hydrolysis by monoclonal receptor NPN 43C9, kinetics and inhibition; type: biochemical, mouse; settings: for Ki / nature of inhibition: substrate Compound 28; for Km: printed figure = km × 10^6; for Vmax: figure = Vmax × 10^9; for kcat: printed figure = kcat × 10^4
Method: FIG. 6 is a graph showing a Lineweaver-Burk plot for amide hydrolysis of reactant ligand Compound 28 by monoclonal receptor NPN 43C9 present at 10 uM. Rates were determined as discussed hereinafter. The ordinate is in units of 1/initial velocity (1/v) in units of minutes/moles (M^-1 min) from zero through 10^7. The abscissa is in units of the reciprocal of the concentration of Compound 28 [1/(28)] in micromoles (uM^-1).
FIG. 7 is a graph showing plots of steady-state velocity (V×10^-9M^-1 min) as a function of total NPN 43C9 monoclonal receptor concentration (At ×10^-6 M) in the absence (I=O) and presence (I=44,=88 and =131) of different concentrations of reversible tight-binding inhibitor (Compound 24i). The indicia adjacent to each curve (I=O, I=44, I=88, and I=131) represent the total micromolar (uM) concentrations of that inhibitor. Each data set was obtained at a constant reactant ligand concentration (1600 uM). […] The data obtained were thereafter fit to an equation shown and discussed hereinafter.
FIG. 8 is a graph showing three further Lineweaver-Burk plots for the hydrolysis of Compound 28 by receptor NPN 43C9 present at 8 uM. Initial velocities were calculated as discussed hereinafter, whereas the ordinate and abscissa are as discussed for FIG. 6, albeit the values of the ordinate are from zero to 3×10^7 M^-1 min. In those plots, the uppermost plot ( ) was prepared from data obtained in the presence of 2000 uM Compound 29 as inhibitor, the middle plot ( ) was obtained in the presence of 1000 uM Compound 29 as inhibitor, and the lowest plot ( ) was obtained in the absence of inhibitor.
It was therefore stored at 4 degrees C in buffer containing 150 mM sodium chloride that was removed immediately prior to use by dialysis against 50 mM CHES, 80 uM NaCl at a pH value of 9.0, and at a temperature of 22 degrees C. This receptor was utilized at concentrations of 10 and 8 uM (as an average value determined from a BCA assay and O. D. 280 nm, using a molecular weight of 160,000 daltons for IgG).
Kinetic parameters for hydrolysis of reactant ligand Compound 28 were determined by measuring the initial linear absorbance change at 404 nm, release of p-nitroaniline. Monoclonal receptor concentrations utilized were 10 and 8 uM, as noted previously. Reactions were initiated by admixture of varying aliquots of a 50 or 100 mM stock solution of Compound 28 in DMF, to provide reactant ligand substrate concentrations of 100-1600 uM. Further studies were carried out using a mixed organic solvent containing dimethyl sulfoxide (DMSO) and acetonitrile (CH3 CN) to dissolve the ligand. In those studies, a final concentration of 5 percent (v/v) of organic solvent was utilized with DMSO comprising 0.2-2.4 volume percent of the final concentration and CH3 CN comprising the remainder of the organic solvent.
Transacylation reactions utilizing an amide reactant ligand as substrate have been studied with Compound 28 as the reactant ligand. In these studies, forty-four hybridomas were prepared that secreted forty-four monoclonal receptors that bound to a conjugate of the immunizing hapten and BSA as carrier protein. Of those forty-four receptors, two appeared to catalyze the hydrolysis reaction of Compound 28. One of those two receptors, NPN 43C9, was selected for further study, as is discussed below.
The initial rates of hydrolysis measured as a function of reactant ligand (Compound 28) concentration followed Michaelis-Menten kinetics.
*Parameters in the upper horizontal row were obtained in the presence of
DMF as a Compound 28solubilizing solvent, whereas parameters in the lower
horizontal row were detained in the presence of DMSO/CH3 CN as
Compound 28solubilizing solvent.
To establish the specificity of monoclonal receptor NPN 43C9, the rates of hydrolysis of potential reactant ligands modified in their acyl or aniline portions were studied. […]

[2] = test system: monoclonal receptor P3 6D4; assay: Stoichiometric transacylation reaction of monoclonal receptor P3 6D4 with coumarin ester Compound 5 (fluorescence) and its inhibition/inactivation; type: biochemical, mouse
Method: A Perkin-Elmer LS-5 fluorescence spectrometer was operated at a fixed wavelength, using 355 nanometers (nm) for excitation and measuring the emission at 455 nm. A stock solution of the coumarin ester 5 was prepared in dioxane and was diluted to the desired concentrations in Tris-HCl (50 mM, pH 7) or sodium phosphate (50 mM, pH 4-9).
Reactions were run at 23 degrees C and were initiated by the addition of an aliquot of antibody solution (1 mg/ml) to substrate solutions to provide a final protein concentration of 100 nM. Final fluorescence values were determined by hydrolysis of the substrate with pig liver esterase. The observed reaction rate was corrected for spontaneous hydrolysis. Reaction kinetics were studied by measuring initial rates under pseudo-first order conditions. Active protein concentration was extrapolated from fluorescence values at the end of the reaction. The kinetic parameters were obtained by fitting the data to a hyperbolic curve and from double reciprocal plots. Inhibition constants were determined from the Lineweaver-Burk plot data with at least five inhibitor concentrations. All the data were studied by a least squares analysis.
Antibody preparations were inactivated without introducing fluorescent products by the addition of the activated ester (Compound 8) in dioxane to a solution of the IgG (5 mg/ml) in Tris-HCl (50 mM, pH 6.5) at a ratio of 5 moles of the ester (Compound 8) per mole IgG.
Protein modification was performed in an analogous manner, by the addition of a dioxane solution of the reagent at a known concentration to the antibody. The solution was incubated for 30 minutes before filtration through Sephadex G-25. The activity remaining was compared to control samples. Aliquots of IgG (5 mg/ml) inactivated with the ester (Compound 8) were diluted with four volumes of phosphate buffer (50 mM, pH 4-9, at intervals of 1 pH unit). Any pH change was recorded, and the sample was stored at 4 degrees C for 24 hours.
Initially, the ester was used at a concentration that was about four-fold greater than that of the protein, and the mixture was incubated at pH 7.2 for 10 minutes. Any change in fluorescence above background was noted.
The termination of the reaction is noted by the return of the rate of fluorescence increase to the background level.

[3] = DMF as Compound 28-solubilizing solvent
[4] = DMSO/CH3CN as Compound 28-solubilizing solvent

substrate acceptance by NPN 43C9 [1]: not reactant ligand substrates
Compound: O=C(Nc1ccc([N+](=O)[O-])cc1)[C@@H]1CCCN1 [L-proline p-nitroanilide, reference compound]

calculated maximum number of enzyme binding sites ([1]; detected with inhibitor Compound 24i): 5.1±0.9
Ki ([1]; infinite reactant ligand concentration, inhibitor binding to receptor in a complex, read-out: inhibition constant kii): 2.5 µM
Ki ([1]; low substrate concentration, inhibitor binding to free receptor, read-out: inhibition constant kis): 10 µM
Compound: CC(=O)Nc1ccc(CP(=O)(O)Nc2ccc([N+](=O)[O-])cc2)cc1 [Compound 24i]
nature of inhibition [1]: Tight binding inhibition; also recorded: mixed inhibitor

substrate acceptance by NPN 43C9 [1]: not reactant ligand substrates
Compound: O=C(O)CCCC(=O)N[C@@H](Cc1ccccc1)C(=O)Nc1ccc([N+](=O)[O-])cc1 [N-glutaryl-L-phenylalanine p-nitroanilide, reference compound]

Compound: zinc [reference compound]
effect of additive on antibody-enhanced esterolysis of Compound 5 ([2]; up to 100 micromolar added zinc and picolinic acid, EDTA concentration not given): No effect

substrate acceptance by NPN 43C9 [1]: not reactant ligand substrates
Compound: O=C(N[C@@H](Cc1ccc(O)cc1)C(=O)Nc1ccc([N+](=O)[O-])cc1)c1ccccc1 [N-benzoyl-L-tryrosine p-nitroanilide, reference compound]

substrate acceptance by NPN 43C9 [1]: lack of receptor-assisted hydrolysis
substrate acceptance by NPN 43C9 ([1]; listed as Compound 28 with m-nitroaniline for p-nitroaniline): non-substrates
nature of inhibition [1]: inhibitor
Compound: O=C(O)CCCC(=O)Nc1ccc(CC(=O)Nc2cccc([N+](=O)[O-])c2)cc1 [Compound 29]

substrate acceptance by NPN 43C9 [1]: not reactant ligand substrates
Compound: N=C(N)NCCCC(NC(=O)c1ccccc1)C(=O)Nc1ccc([N+](=O)[O-])cc1 (racemic) [reference compound]

stoichiometric antibody reaction (release of alcohol) [2]: not detected
Compound: CC(=O)Nc1ccc(CC(=O)Oc2ccc3ccc(=O)oc3c2)cc1 [reference compound]

nature of inhibition [1]: reversible
Compound: CC(=O)Nc1ccc(CP(=O)(O)Nc2ccc([N+](=O)[O-])cc2)cc1 [inhibitor]

Compound: O=C(O)CN(CCN(CC(=O)O)CC(=O)O)CC(=O)O [EDTA, reference compound]
effect of additive on antibody-enhanced esterolysis of Compound 5 [2]: failure of added EDTA to affect the reaction

Compound: CC(C)C[C@H](NC(=O)CNC(=O)CNC(=O)OCc1ccccc1)C(=O)Nc1ccc([N+](=O)[O-])cc1 [N-CBZ-glycyl-glycyl-L-leucine p-nitroanilide, reference compound] (Cbz-Gly-Gly-Leu-pNA)
substrate acceptance by NPN 43C9 [1]: not reactant ligand substrates

substrate acceptance by NPN 43C9 [1]: non-substrates
Compound: O=C(O)CCCC(=O)Nc1ccc(CC(=O)Nc2ccccc2[N+](=O)[O-])cc1

substrate acceptance by NPN 43C9 [1]: not reactant ligand substrates
Compound: CC(C)C[C@H](N)C(=O)Nc1ccc([N+](=O)[O-])cc1 [L-leucine p-nitroanilide, reference compound]

rate acceleration / rate enhancement relative to uncatalyzed reaction [1]: 10^5
substrate acceptance by NPN 43C9 [1]: substrate
kcat/kuncat [1, 3]: 1.5 × 10^5
Km ([1]; DMF as Compound 28-solubilizing solvent, pH 9.0): 370 µM
Vmax [1, 3]: 8.3 nM/s
kcat [1, 3]: 0.00083 s⁻¹
kcat/kuncat [1, 4]: 2.5 × 10^5
Vmax [1, 4]: 7 nM/s
kcat [1, 4]: 0.00133 s⁻¹
Km [1, 4]: 562 µM
available transition state binding energy ΔΔG ([1]; difference between binding of inhibitor (Ki) and Compound 28 (Km)): -9.2 kJ/mol
Compound: O=C(O)CCCC(=O)Nc1ccc(CC(=O)Nc2ccc([N+](=O)[O-])cc2)cc1 [Compound 28]

substrate acceptance by NPN 43C9 [1]: catalytically hydrolyzed
Compound: O=C(O)CCCC(=O)Nc1ccc(CC(=O)Oc2ccc([N+](=O)[O-])cc2)cc1

substrate acceptance by NPN 43C9 [1]: not reactant ligand substrates
Compound: CC(=O)N[C@@H](CC(N)=O)C(=O)Nc1ccc([N+](=O)[O-])cc1 [acetyl-L-asparagine p-nitroanilide, reference compound]

Compound: CC(C)C[C@H](NC(=O)[C@H](CCC(=O)O)NC(=O)CCCC(=O)O)C(=O)Nc1ccc([N+](=O)[O-])cc1 [glutaryl-glutamyl-L-leucine p-nitroanilide, reference compound] (Glutaryl-Glu-Leu-pNA)
substrate acceptance by NPN 43C9 [1]: not reactant ligand substrates

substrate acceptance by NPN 43C9 [1]: not reactant ligand substrates
Compound: N=C(N)NCCC[C@H](NC(=O)OCc1ccccc1)C(=O)Nc1ccc([N+](=O)[O-])cc1 [N-alpha-CBZ-L-arginine p-nitroanilide, reference compound]

substrate acceptance by NPN 43C9 [1]: not reactant ligand substrates
Compound: N[C@@H](CSCc1ccccc1)C(=O)Nc1ccc([N+](=O)[O-])cc1 [S-benzyl-L-cysteine p-nitroanilide, reference compound]

Ki ([2]; summary, kinetic parameters at low pH values, read-out: Ki (inhibition of antibody esterolysis)): 7 µM
Compound: O=C(O)Cc1ccc(NC(=O)C(F)(F)F)cc1 [carboxylate product of ester hydrolysis]

substrate acceptance by NPN 43C9 [1]: not reactant ligand substrates
Compound: NCCCC[C@H](N)C(=O)Nc1ccc([N+](=O)[O-])cc1 [L-lysine p-nitroanilide, reference compound]

Compound: O=C(Cc1ccc(NC(=O)C(F)(F)F)cc1)ON1C(=O)CCC1=O [Compound 6]
inactivation of receptor [2]: specifically combine with the antibodies to produce an inactive product

substrate acceptance by NPN 43C9 [1]: not reactant ligand substrates
Compound: CC(C)[C@H](N)C(=O)Nc1ccc([N+](=O)[O-])cc1 [L-valine p-nitroanilide, reference compound]
